# Assay results published in patent US9232796B2, “Herbicidal compositions comprising 4-amino-3-chloro-5-fluoro-6-(4-chloro-2-fluoro-3-methoxyphenyl) pyridine-2-carboxylic acid or a derivative thereof and acetyl-CoA carboxylase (ACCase) inhibitors” (DOW AGROSCIENCES LLC, priority 2012, dated 2016).
# Values joined by “and” are separate entries in the source; they are usually repeats but may differ in a detail not shown here. Identical values can stand only once.
# Assays:
# LEFCH = assay: Example II in-water applied, greenhouse, transplanted paddy rice weeds; type: in vivo, Leptochloa chinensis (L.) Nees
# Description: Weed seeds or nutlets of the desired test plant species were planted in puddled soil (mud) prepared by mixing a shredded, non-sterilized mineral soil (50.5 percent silt, 25.5 percent clay, and 24 percent sand, with a pH of about 7.6 and an organic matter content of about 2.9 percent) and water at a 1:1 volumetric ratio. The prepared mud was dispensed in 365 mL aliquots into 16-ounce (oz.) non-perforated plastic pots with a surface area of 86.59 square centimeters (cm^2) leaving a headspace of 3 centimeters (cm) in each pot. Mud was allowed to dry overnight prior to planting or transplanting. Rice seeds were planted in Sun Gro MetroMix® 306 planting mixture, which typically has a pH of 6.0 to 6.8 and an organic matter content of about 30 percent, in plastic plug trays. Seedlings at the second or third leaf stage of growth were transplanted into 860 mL of mud contained in 32-oz. non-perforated plastic pots with a surface area of 86.59 cm^2 4 days prior to herbicide application. The paddy was created by filling the headspace of the pots with 2.5 to 3 cm of water. […] The plants were grown for 4-22 days in a greenhouse with an approximate 14 hr. photoperiod which was maintained at about 29° C. during the day and 26° C. during the night. Nutrients were added as Osmocote® (19:6:12, N:P:K+minor nutrients) at 2 g per 16-oz. pot and 4 g per 32-oz. pot. Water was added on a regular basis to maintain the paddy flood, and supplemental lighting was provided with overhead metal halide 1000-Watt lamps as necessary. The plants were employed for testing when they reached the first through fourth true leaf stage.
# Treatments consisted of the acid or esters of 4-amino-3-chloro-5-fluoro-6-(4-chloro-2-fluoro-3-methoxy-phenyl)pyridine-2-carboxylic acid (compound A) each formulated as an SC (suspension concentrate) and various herbicidal components alone and in combination.
# For formulated compounds, a measured amount was placed in an individual 100 or 200 mL glass vial and was dissolved in a volume of 1.25% (v/v) Agri-Dex® crop oil concentrate to obtain application solutions.
# Applications were made by injecting with a pipetter appropriate amounts of the application solutions, individually and sequentially, into the aqueous layer of the paddy. Control plants were treated in the same manner with the solvent blank. Applications were made so that all treated plant material received the same concentrations of acetone and crop oil concentrate.
# The treated plants and control plants were placed in a greenhouse as described above and water was added as needed to maintain a paddy flood. After approximately 3 weeks the condition of the test plants as compared with that of the untreated plants was determined visually and scored on a scale of 0 to 100 percent where 0 corresponds to no injury or growth inhibition and 100 corresponds to complete kill.
# Colby's equation was used to determine the herbicidal effects expected from the mixtures (Colby, S. R. 1967. Calculation of the synergistic and antagonistic response of herbicide combinations. Weeds 15:20-22.).
# The following equation was used to calculate the expected activity of mixtures containing two active ingredients, A and B: Expected=A+B−(A×B/100)
# IPOHE = assay: Example I postemergence foliar-applied, greenhouse, direct seeded rice weeds; type: in vivo, Ipomoea hederacea Jacq.
# How it was run: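 Greenhouse plants in loam/sandy loam–grit soil (80:20), grown 8-22 days (29/26 °C, 14 hr photoperiod) to first–fourth true leaf, sprayed postemergence at 187 L/ha with 1.25% (v/v) crop oil concentrate, alone or in mixtures. Visual injury scored 0–100% versus untreated plants after about 3 weeks; mixture expectations by Colby's equation.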
smiles,measurement,setting,value
"CCC/C(=N\OCC(C)Oc1ccc(Cl)cc1)C1=C(O)CC(C2CCCSC2)CC1=O (stereo not drawn) [Profoxydim, 2-[1-[[2-(4-chlorophenoxy)propoxy]imino]butyl]-3-hydroxy-5-(tetrahydro-2H-thiopyran-3-yl)-2-cyclohexen-1-one, reference compound]",Visual Weed Control (%) - 21 DAA LEFCH Obs,"LEFCH; in-water, 25 gai/ha",85%
"COc1c(Cl)ccc(-c2nc(C(=O)O)c(Cl)c(N)c2F)c1F [Compound A Acid, 4-amino-3-chloro-6-(4-chloro-2-fluoro-3-methoxyphenyl)-5-fluoropyridine-2-carboxylic acid]",Visual Weed Control (%) - 19 DAA LEFCH Obs,LEFCH; 42.4 gae/ha in-water,10%
same,Visual Weed Control (%) - 21 DAA LEFCH Obs,"LEFCH; in-water, 17.5 gae/ha",0%
same,Visual Weed Control (%) - 21 DAA LEFCH Obs,"LEFCH; in-water, 35 gae/ha",20%
same,Visual Weed Control (%) - 19 DAA IPOHE Obs,IPOHE; 4.38 gae/ha,0%
same,Visual Weed Control (%) - 20 DAA IPOHE Obs,IPOHE; 4.38 gae/ha,10% and 0%
same,Visual Weed Control (%) - 24 DAA IPOHE Obs,IPOHE; 4.38 gae/ha,10%
same,Visual Weed Control (%) - 19 DAA IPOHE Obs,IPOHE; 8.75 gae/ha,10%
same,Visual Weed Control (%) - 20 DAA IPOHE Obs,IPOHE; 8.75 gae/ha,30% and 20%
same,Visual Weed Control (%) - 24 DAA IPOHE Obs,IPOHE; 8.75 gae/ha,10%
same,Visual Weed Control (%) - 19 DAA IPOHE Obs,IPOHE; 17.5 gae/ha,35%
same,Visual Weed Control (%) - 20 DAA IPOHE Obs,IPOHE; 17.5 gae/ha,40%
same,Visual Weed Control (%) - 24 DAA IPOHE Obs,IPOHE; 17.5 gae/ha,30%
same,Visual Weed Control (%) - 20 DAA IPOHE Obs,IPOHE; 19.4 gae/ha,15%
"COc1c(Cl)ccc(-c2nc(C(=O)OCc3ccccc3)c(Cl)c(N)c2F)c1F [Compound A Benzyl Ester, benzyl ester of 4-amino-3-chloro-5-fluoro-6-(4-chloro-2-fluoro-3-methoxy-phenyl)pyridine-2-carboxylic acid]",Visual Weed Control (%) - 19 DAA IPOHE Obs,IPOHE; 4.38 gae/ha,0%
same,Visual Weed Control (%) - 19 DAA IPOHE Obs,IPOHE; 8.75 gae/ha,0%
same,Visual Weed Control (%) - 21 DAA IPOHE Obs,IPOHE; 16 gae/ha,10%
same,Visual Weed Control (%) - 21 DAA IPOHE Obs,IPOHE; 32 gae/ha,25%
same,Visual Weed Control (%) - 22 DAA IPOHE Obs,IPOHE; 32 gae/ha,45%
"CCCCOC(=O)[C@@H](C)Oc1ccc(Oc2ccc(C#N)cc2F)cc1 [Cyhalofop-butyl, butyl(2R)-2-[4-(4-cyano-2-fluorophenoxy)phenoxy]propanoate, reference compound]",Visual Weed Control (%) - 19 DAA LEFCH Obs,"LEFCH; 180 gai/ha, in-water",75%
same,Visual Weed Control (%) - 20 DAA IPOHE Obs,IPOHE; 280 gai/ha,0%
"CCOC(=O)[C@@H](C)Oc1ccc(Oc2cnc3cc(Cl)ccc3n2)cc1 [Quizalofop-p-ethyl, ethyl(2R)-2-[4-[(6-chloro-2-quinoxalinyl)oxy]phenoxy]propanoate, reference compound]",Visual Weed Control (%) - 22 DAA IPOHE Obs,IPOHE; 1.88 gai/ha,0%
same,Visual Weed Control (%) - 22 DAA IPOHE Obs,IPOHE; 3.75 gai/ha,0%
same,Visual Weed Control (%) - 22 DAA IPOHE Obs,IPOHE; 7.5 gai/ha,0%
same,Visual Weed Control (%) - 20 DAA IPOHE Obs,IPOHE; 15 gai/ha,0%
same,Visual Weed Control (%) - 20 DAA IPOHE Obs,IPOHE; 30 gai/ha,0%
"C[C@@H](Oc1ccc(Oc2nc3ccc(Cl)cc3o2)cc1)C(=O)N(C)c1ccccc1F [Metamifop, (2R)-2-[4-[(6-chloro-2-benzoxazolyl)oxy]phenoxy]-N-(2-fluorophenyl)-N-methylpropanamide]",Visual Weed Control (%) - 22 DAA IPOHE Obs,IPOHE; 9.38 gai/ha,0%
same,Visual Weed Control (%) - 22 DAA IPOHE Obs,IPOHE; 18.75 gai/ha,0%
same,Visual Weed Control (%) - 22 DAA IPOHE Obs,IPOHE; 37.5 gai/ha,0%
same,Visual Weed Control (%) - 24 DAA IPOHE Obs,IPOHE; 150 gai/ha,0%
